# Source: the OligoGym collection
# HELM strings list units from the 5' end as sugar, base in round brackets, then linkage (d deoxyribose, r ribose, m 2'-O-methyl, p phosphodiester). Strings are as the collection lists them; they lack the last nucleoside at the 3' end of the tested compound. [moe] = 2'-O-(2-methoxyethyl) (MOE); [sp] = phosphorothioate linkage; [m5C] = 5-methylcytosine
# Biological target: SCN2A
# Experiment: mouse, dose not given
# Settings: ASO
row,Substance,3 h FOB score
1,RNA1{[moe](A)[sp].[moe]([m5C])p.[moe]([m5C])p.[moe](A)p.[moe]([m5C])p.d(G)[sp].d([m5C])[sp].d(T)[sp].d(T)[sp].d(A)[sp].d([m5C])[sp].d(A)[sp].d(T)[sp].d([m5C])[sp].d(A)[sp].[moe](A)p.[moe](A)p.[moe]([m5C])[sp].[moe](A)}$$$$ (last 3' nucleoside missing),0.33 score 0-7
2,RNA1{[moe](T)[sp].[moe](T)p.[moe]([m5C])p.[moe](T)p.d(G)[sp].d([m5C])[sp].d(A)[sp].d(T)[sp].d(G)[sp].d(T)[sp].d(A)[sp].d(A)[sp].d([m5C])[sp].d([m5C])[sp].[moe](T)p.[moe](T)p.[moe](T)p.[moe](A)[sp].[moe](T)}$$$$ (last 3' nucleoside missing),1 score 0-7
3,RNA1{[moe](A)[sp].[moe](T)p.[moe](G)p.[moe](T)p.[moe](A)p.d(A)[sp].d([m5C])[sp].d([m5C])[sp].d(T)[sp].d(T)[sp].d(T)[sp].d(A)[sp].d(T)[sp].d(A)[sp].d([m5C])[sp].[moe](A)p.[moe](T)p.[moe](T)[sp].[moe](T)}$$$$ (last 3' nucleoside missing),0 score 0-7
4,RNA1{[moe](G)[sp].[moe]([m5C])p.[moe]([m5C])p.[moe](T)p.[moe](A)p.d([m5C])[sp].d(T)[sp].d(T)[sp].d([m5C])[sp].d([m5C])[sp].d(T)[sp].d(T)[sp].d([m5C])[sp].d([m5C])[sp].d(A)[sp].[moe](A)p.[moe](G)p.[moe](G)[sp].[moe](A)}$$$$ (last 3' nucleoside missing),0.33 score 0-7
5,RNA1{[moe]([m5C])[sp].[moe](A)p.[moe](T)p.[moe](G)p.[moe](T)p.[moe](A)[sp].d(A)[sp].d([m5C])[sp].d([m5C])[sp].d(T)[sp].d(T)[sp].d(T)[sp].d(A)[sp].d(T)[sp].[moe](A)p.[moe]([m5C])[sp].[moe](A)}$$$$ (last 3' nucleoside missing),0 score 0-7
6,RNA1{[moe](G)[sp].[moe](T)p.[moe]([m5C])p.[moe](T)p.[moe]([m5C])p.[moe](T)p.d(T)[sp].d(T)[sp].d([m5C])[sp].d(T)[sp].d(T)[sp].d(A)[sp].d(T)[sp].d(T)[sp].d(T)[sp].d([m5C])[sp].[moe](T)p.[moe](G)[sp].[moe](T)}$$$$ (last 3' nucleoside missing),1 score 0-7
7,RNA1{[moe](A)[sp].[moe](G)p.[moe]([m5C])p.[moe](T)p.[moe]([m5C])p.d(T)[sp].d(T)[sp].d(T)[sp].d(T)[sp].d(T)[sp].d([m5C])[sp].d(A)[sp].d([m5C])[sp].d(T)[sp].d(T)[sp].[moe](T)p.[moe](T)p.[moe](G)[sp].[moe](G)}$$$$ (last 3' nucleoside missing),0.67 score 0-7
8,RNA1{[moe](T)[sp].[moe](T)p.[moe]([m5C])p.[moe](T)p.d(A)[sp].d(T)[sp].d(T)[sp].d(T)[sp].d(T)[sp].d(A)[sp].d(T)[sp].d(A)[sp].d(A)[sp].d(A)[sp].[moe](T)p.[moe](G)p.[moe]([m5C])p.[moe]([m5C])[sp].[moe](G)}$$$$ (last 3' nucleoside missing),1 score 0-7
9,RNA1{[moe](T)[sp].[moe](G)p.[moe]([m5C])p.[moe](A)p.[moe](T)p.d(G)[sp].d(T)[sp].d(A)[sp].d(A)[sp].d([m5C])[sp].d([m5C])[sp].d(T)[sp].d(T)[sp].d(T)[sp].d(A)[sp].[moe](T)p.[moe](A)p.[moe]([m5C])[sp].[moe](A)}$$$$ (last 3' nucleoside missing),1 score 0-7
10,RNA1{[moe](A)[sp].[moe](A)p.[moe](T)p.[moe]([m5C])p.d(A)[sp].d([m5C])[sp].d(T)[sp].d(T)[sp].d(T)[sp].d([m5C])[sp].d(A)[sp].d(T)[sp].d([m5C])[sp].d([m5C])[sp].[moe](A)p.[moe]([m5C])p.[moe](G)p.[moe](A)[sp].[moe]([m5C])}$$$$ (last 3' nucleoside missing),0.33 score 0-7
11,RNA1{[moe](T)[sp].[moe](G)p.[moe]([m5C])p.[moe](A)p.d(T)[sp].d(G)[sp].d(T)[sp].d(A)[sp].d(A)[sp].d([m5C])[sp].d([m5C])[sp].d(T)[sp].d(T)[sp].d(T)[sp].[moe](A)p.[moe](T)p.[moe](A)p.[moe]([m5C])[sp].[moe](A)}$$$$ (last 3' nucleoside missing),0 score 0-7
12,RNA1{[moe]([m5C])[sp].[moe](T)p.[moe]([m5C])p.[moe](T)p.d(T)[sp].d(T)[sp].d([m5C])[sp].d(T)[sp].d(T)[sp].d(A)[sp].d(T)[sp].d(T)[sp].d(T)[sp].d([m5C])[sp].[moe](T)p.[moe](G)p.[moe](T)p.[moe](T)[sp].[moe](T)}$$$$ (last 3' nucleoside missing),0 score 0-7
13,RNA1{[moe](A)[sp].[moe]([m5C])p.[moe](G)p.[moe](A)p.d([m5C])[sp].d(A)[sp].d(T)[sp].d(A)[sp].d(T)[sp].d(T)[sp].d(T)[sp].d(T)[sp].d(T)[sp].d([m5C])[sp].[moe](T)p.[moe](A)p.[moe]([m5C])p.[moe](A)[sp].[moe]([m5C])}$$$$ (last 3' nucleoside missing),0 score 0-7
14,RNA1{[moe](G)[sp].[moe](A)p.[moe]([m5C])p.[moe]([m5C])p.[moe](G)p.d(A)[sp].d(A)[sp].d(T)[sp].d(T)[sp].d([m5C])[sp].d(T)[sp].d(A)[sp].d(T)[sp].d(T)[sp].d(T)[sp].[moe](T)p.[moe](A)p.[moe](T)[sp].[moe](A)}$$$$ (last 3' nucleoside missing),1 score 0-7
15,RNA1{[moe]([m5C])[sp].[moe](T)p.[moe](G)p.[moe](G)p.d(A)[sp].d([m5C])[sp].d([m5C])[sp].d(G)[sp].d(T)[sp].d([m5C])[sp].d(T)[sp].d([m5C])[sp].d(T)[sp].d(T)[sp].[moe](T)p.[moe]([m5C])p.[moe](T)p.[moe](T)[sp].[moe](A)}$$$$ (last 3' nucleoside missing),1 score 0-7
16,RNA1{[moe]([m5C])[sp].[moe](A)p.[moe]([m5C])p.[moe](G)p.d(A)[sp].d([m5C])[sp].d(A)[sp].d(T)[sp].d(A)[sp].d(T)[sp].d(T)[sp].d(T)[sp].d(T)[sp].d(T)[sp].[moe]([m5C])p.[moe](T)p.[moe](A)p.[moe]([m5C])[sp].[moe](A)}$$$$ (last 3' nucleoside missing),0 score 0-7
17,RNA1{[moe](T)[sp].[moe](G)p.[moe]([m5C])p.[moe](A)p.d(T)[sp].d(A)[sp].d(A)[sp].d(T)[sp].d([m5C])[sp].d([m5C])[sp].d([m5C])[sp].d(A)[sp].d(T)[sp].d(T)[sp].[moe](A)p.[moe](T)p.[moe](A)p.[moe]([m5C])[sp].[moe](A)}$$$$ (last 3' nucleoside missing),0 score 0-7
18,RNA1{[moe](G)[sp].[moe](A)p.[moe]([m5C])p.[moe](A)p.[moe](T)p.d(A)[sp].d(T)[sp].d(T)[sp].d(T)[sp].d(T)[sp].d(T)[sp].d([m5C])[sp].d(T)[sp].d(A)[sp].d([m5C])[sp].[moe](A)p.[moe]([m5C])p.[moe](T)[sp].[moe](G)}$$$$ (last 3' nucleoside missing),1.67 score 0-7
19,RNA1{[moe](A)[sp].[moe](T)p.[moe]([m5C])p.[moe](A)p.d(T)[sp].d(G)[sp].d([m5C])[sp].d(A)[sp].d(T)[sp].d(A)[sp].d(A)[sp].d(T)[sp].d([m5C])[sp].d([m5C])[sp].[moe]([m5C])p.[moe](A)p.[moe](T)p.[moe](T)[sp].[moe](A)}$$$$ (last 3' nucleoside missing),1 score 0-7
20,RNA1{[moe](G)[sp].[moe](G)p.[moe](T)p.[moe]([m5C])p.[moe](T)p.d([m5C])[sp].d(T)[sp].d(T)[sp].d(A)[sp].d(G)[sp].d([m5C])[sp].d(T)[sp].d(T)[sp].d(T)[sp].d([m5C])[sp].[moe](T)p.[moe]([m5C])p.[moe](T)[sp].[moe](T)}$$$$ (last 3' nucleoside missing),4 score 0-7
21,RNA1{[moe](T)[sp].[moe]([m5C])p.[moe](T)p.[moe](G)p.[moe]([m5C])[sp].d(A)[sp].d(T)[sp].d(G)[sp].d(T)[sp].d(A)[sp].d(A)[sp].d([m5C])[sp].d([m5C])[sp].[moe](T)p.[moe](T)p.[moe](T)[sp].[moe](A)}$$$$ (last 3' nucleoside missing),1 score 0-7
22,RNA1{[moe](A)[sp].[moe]([m5C])p.[moe]([m5C])p.[moe](G)p.[moe](A)p.d(A)[sp].d(T)[sp].d(T)[sp].d([m5C])[sp].d(T)[sp].d(A)[sp].d(T)[sp].d(T)[sp].d(T)[sp].d(T)[sp].[moe](A)p.[moe](T)p.[moe](A)[sp].[moe](A)}$$$$ (last 3' nucleoside missing),1.67 score 0-7
23,RNA1{[moe](T)[sp].[moe](T)p.[moe](G)p.[moe](G)p.[moe](G)p.d(T)[sp].d([m5C])[sp].d(T)[sp].d([m5C])[sp].d(T)[sp].d(T)[sp].d(A)[sp].d(G)[sp].d([m5C])[sp].d(T)[sp].[moe](T)p.[moe](T)p.[moe]([m5C])[sp].[moe](T)}$$$$ (last 3' nucleoside missing),2.67 score 0-7
24,RNA1{[moe](T)[sp].[moe]([m5C])p.[moe]([m5C])p.[moe](A)p.[moe]([m5C])p.[moe](G)p.d(A)[sp].d([m5C])[sp].d(A)[sp].d(T)[sp].d(A)[sp].d(T)[sp].d(T)[sp].d(T)[sp].d(T)[sp].d(T)[sp].[moe]([m5C])p.[moe](T)[sp].[moe](A)}$$$$ (last 3' nucleoside missing),0 score 0-7
25,RNA1{[moe](A)[sp].[moe](T)p.[moe]([m5C])p.[moe](G)p.[moe](A)p.d(T)[sp].d(T)[sp].d([m5C])[sp].d([m5C])[sp].d(T)[sp].d(T)[sp].d(T)[sp].d([m5C])[sp].d(T)[sp].d(G)[sp].[moe]([m5C])p.[moe](A)p.[moe](T)[sp].[moe]([m5C])}$$$$ (last 3' nucleoside missing),1 score 0-7
26,RNA1{[moe](T)[sp].[moe]([m5C])p.[moe](T)p.[moe](A)[sp].d(T)[sp].d(T)[sp].d(T)[sp].d(T)[sp].d(A)[sp].d(T)[sp].d(A)[sp].d(A)[sp].[moe](A)p.[moe](T)p.[moe](G)p.[moe]([m5C])[sp].[moe]([m5C])}$$$$ (last 3' nucleoside missing),1 score 0-7
